According to patent US20070026090A1, “Treatment and prevention of inflammatory disease and mitochondrial dysfunction with high dose selenium” (priority 2003, published 2007):

Tests used:
[1] = test system: Sp1; test: Sp1 binding activity of nuclear extracts of treated macrophages (EMSA); type: cell-based, murine
Method: (§1) Cell culture: Murine J774.2 macrophages (kindly provided by Prof. Dov Zipori from the Weizmann Institute of Science) were grown in RPMI medium supplemented with 10% (w/v) fetal calf serum, penicillin (100 U/ml), streptomycin (100 μg/ml) and 1× glutamine at 37° C. in a humidified atmosphere consisting of 95% air and 5% CO2. Experiments were performed on cells at 60% confluence.
Nuclear extracts: Nuclear Extracts were prepared using a slight modification of the method of Dignam et al (23). Treated cells were washed with cold PBS, scraped and centrifuged. Hypotonic buffer (1 ml, 20 mM HEPES pH 7.0, 10 mM KCl, 1 mM mGCl2, 0.5 mM DTT, 0.1% Triton X-100, 20% glycerol, 2 mM PMSP, 1 mg/ml Aprotonin and Leupeptin) was added to the cell pellets, the pellets were disrupted by pipetting, and centrifuged 3000 RPM for 5 min. The pellets were re-suspended in 100 μl cold extraction buffer (20 mM HEPES pH 7.0, 10 mM KCl, 1 mM mGCl2, 0.5 mM DTT, 0.1% Triton X-100, 20% glycerol, 2 mM PMSF, 1 mg/ml Aprotonin and Leupeptin, 420 mM NaCl). The samples were rotated for 20 min at 4° C., centrifuged 15,000 RPM for 10 min, and supernatants collected. Protein content was measured using Bradford reagent. Samples were stored frozen at minus 70° C.
Electromobility shift assay (EMSA)—Gel shift assays were performed according to the gel shift assay protocol from Promega Corp. (San Luis Obispo, Calif.). A 22-mer double-stranded NF-κB consensus oligonucleotide 5′-[…]-3′ (SEQ ID NO:3), and Sp1 consensus oligonucleotide 5′-[…]-3(SEQ ID NO:4), were labeled with 32P. For each reaction, 2 μg of nuclear extract were incubated with 2 μl of 5× binding buffer for 5 min., 1 μl of the ^32P-labeled oligonucleotide was added at room temperature for 20 min., the samples were prepared by adding 1 μl of dye free loading buffer, and separated using 6% non-denaturing acrylamide gel electrophoresis. The gel was dried and exposed to a phosphoimaging screen for 18 hours and then visualized with a phosphoimager. For specificity, 1 μl of unlabeled consensus oligonucleotide was used to compete with the labeled probe.

[2] = test system: NRF-1; test: NRF1 mRNA in colon tissue (RT-PCR); type: in vivo, rat
Method: Mitochondrial (mt) TFA, NRF1, and cytochrome c mRNA analysis: Total RNA was extracted from 50 to 100 mg tissue at a time using 1 ml of Tri Reagent® (Sigma-Aldrich Corp., St. Louis, Mo.) according to manufacturer's instructions. First strand cDNA synthesis was carried out using reverse-iTTM First Strand Synthesis from Advanced Biotechnologies (ABgene®, ABgene, Epsom, U.K.) was used according to the manufacturer's instructions. Target sequences were amplified in the PCR reaction as follows: each tube contained 37 ng of cDNA from cytochrome c, GAPDH, or 18S, 3 μl of specific primers, 12.5 μl of ready Mix and 6.5 μl water DEPC (for a total 25 μl in each tube).
The PCR for cytochrome c, NRF1 and mtTFA was run at 95° C. for 5 min, 94° C. for 30 sec, 56° C. for 2 min, 72° C. for 1 min, back to stage 2 for 22, 26, 24 cycles, respectively, then 72° C. for 10 min, and 4° C. The products of the PCR were separated on a 1% agarose gel in TAE buffer with ethidium bromide. The electrophoresis took place in a BioRad device in 1×TAE buffer at 95 V for about 50 min (maximum mA). The size of the cDNA was determined by a 100-bp marker.
Rat NFR-1: (Antisense) 5′-[…]-3′ (SEQ ID No. 13) corresponding to nucleotides 450 to 469 of rat NFR-1 (GenBank Accession No. XM231566).
(Sense): 5′-[…] -3′ (SEQ ID No. 14). The expected PCR product was 461 bp, the actual 461 bp.

[3] = test system: J774.2 macrophages; test: Intracellular ROS (H2O2) production, DCF fluorescence; type: cell-based, murine
Method: as §1
Intracellular Radical Oxygen Species (ROS) (H2O2): Intracellular ROS were detected using dihydrodichlorofluorescein (H2DCF-DA). Cells exposed to different treatments were washed three times with PBS. Cells were centrifuged (2000 RPM, 5 min), resuspended in PBS and incubated with 25 μM H2DCF-DA for 30 min at 37° C. To detect intracellular fluorescence, the fluorochrome-loaded cells were excited using a 488-nm argon-ion laser in a flow cytometer. The dichlorofluorescein (DCF) emission was recorded at 530 nm. Data were collected from at least 10,000 cells. Alternatively, DCF fluorescence was recorded using a microfluorometer plate reader (GENios, Tecan, Austria). Cells were washed twice with PBS, then 25 μM H2DCF-DA was added and cells incubated for 30 min at 37° C. Following an additional wash, cells were lysed with PBS-0.2% Triton-X 100. Total fluorescence was recorded and calibrated according to protein content.

[4] = in vivo; cited from earlier work
[5] = test system: 18S RNA and GAPDH; test: Housekeeping transcripts 18S and GAPDH in colon tissue (RT-PCR); type: in vivo, rat; settings: supplemented rats (FIG. 7A)
[6] = in vivo; cited from earlier work; remark: listed apart in the source

[Se] [selenium]
lowest concentration with dramatic effect on Sp-1 binding, activated macrophages ([1]; 72 hours, then 6 hours LPS + INFγ, range 0.5-5 μM (FIG. 13A lower panel)): 5 µM | lowest concentration with dramatic effect on Sp-1 binding, resting macrophages ([1]; 72 hours, unactivated (FIG. 13A upper panel)): 5 µM | binding of Sp-1, activated macrophages ([1]; concentration-dependent (FIG. 13A)): dramatically reduced | NRF-1 levels in colon tissue, colitis-induced rats ([2]; 24 h after TNBS, supplemented (FIG. 17 lane 4), unsupplemented nearly 50% reduction): surpass that of healthy control rats | NRF-1 levels in colon tissue, healthy rats ([2]; healthy supplemented rats (FIG. 17 lane 2)): significantly enhances | ROS (H2O2) production over the concentration range ([3]; 0.5-30 μM, resting J774.2 (FIG. 8A)): reduced ROS production in a dose-dependent manner | ROS production in activated macrophages ([3]; LPS 10 ng/ml + INFγ 50 units/ml 24 h, then 10 μM (FIG. 16A)): reduces | decrease in peroxide production (DCF fluorescence) ([3]; at 30 μM, resting J774.2 (FIG. 8A)): > 30% | carcinogenesis in male mice [4]: unaffected | 18S and GAPDH transcription [5]: without effecting | average lifetime daily intake with biochemical and clinical symptoms [6]: greater than 1000 microgram
